Compound `C[C@H](OC(=O)c1ccc(C(=O)Nc2cc([Si](C)(C)C)cc([Si](C)(C)C)c2)cc1)C(=O)O` gave a melting point of 198 to 200 °C.
The figure for `CC1(C)CCC(C)(C)c2cc(NC(=O)c3ccc(/C=C/C(=O)O)cc3)ccc21` [Example 24, 4-[(5,6,7,8-Tetrahydro-5,5,8,8-tetramethyl-2-naphthyl)carbamoyl]cinnamic acid] is 226 to 227 °C; for `CC1(C)CCC(C)(C)c2cc(NC(=O)c3ccc(C=O)cc3)ccc21` [Example 23, 4-Formyl-N-(5,6,7,8-tetrahydro-5,5,8,8-tetramethyl-2-naphthyl)benzamide] it is 185.5 to 186.5 °C.

Values taken from patent US8633335B2, “Retinoid prodrug compound” (Research Founation Itsuu Laboratory, priority 2007, dated 2014).
